From ChEMBL document CHEMBL4411321, “Discovery of Potent, Selective, and Orally Bioavailable Estrogen-Related Receptor-γ Inverse Agonists To Restore the Sodium Iodide Symporter Function in Anaplastic Thyroid Cancer” (J Med Chem, 2019)
Active and inactive are the calls of the source. No cut-off for these calls is given here.

Assays:
[1] = target: T1, Estrogen-related receptor gamma (Homo sapiens) (UniProt P62508); experiment: Inverse agonist activity at ERRgamma in human CAL62 cells assessed as increase in TG mRNA expression at 6 to 12 uM by RT-PCR analysis; type: cell-based
T1 sequence (whole entry): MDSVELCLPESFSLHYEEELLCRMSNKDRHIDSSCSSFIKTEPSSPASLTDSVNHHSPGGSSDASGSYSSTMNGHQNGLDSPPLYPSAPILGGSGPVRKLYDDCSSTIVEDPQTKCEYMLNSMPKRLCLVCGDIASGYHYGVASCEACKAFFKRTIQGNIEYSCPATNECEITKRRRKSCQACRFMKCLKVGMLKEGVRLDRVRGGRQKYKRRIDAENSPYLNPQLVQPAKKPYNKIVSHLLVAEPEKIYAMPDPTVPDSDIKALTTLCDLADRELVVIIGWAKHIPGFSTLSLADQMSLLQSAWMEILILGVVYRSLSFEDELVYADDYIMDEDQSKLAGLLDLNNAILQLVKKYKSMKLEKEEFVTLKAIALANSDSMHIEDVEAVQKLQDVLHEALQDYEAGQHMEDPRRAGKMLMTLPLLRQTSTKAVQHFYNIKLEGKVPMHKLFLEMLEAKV

in vivo = conditions: Sprague-Dawley, rat, iv, 1 mg/kg
[2] = Metabolic stability in mouse liver microsomes assessed as compound remaining at 1 uM after 30 mins in presence of NADPH regeneration system by LC-MS/MS analysis; type: ADME, Microsome; conditions: read-out: Stability
CAL-62 = experiment: Reduction in colony formation in human CAL62 cells at 6 uM after 24 hrs by crystal violet-based assay; type: ADME, cell-based; conditions: cal-62, 24 h
[3] = Metabolic stability in rat liver microsomes assessed as compound remaining at 1 uM after 30 mins in presence of NADPH regeneration system by LC-MS/MS analysis; type: ADME, Microsome; conditions: read-out: Stability
CYP2C9 = CYP2C9 (Homo sapiens, UniProt P11712); experiment: Inhibition of CYP2C9 in human liver microsomes assessed as reduction in tolbutamide 4-hydroxylase activity at 10 uM preincubated for 5 mins followed by NADPH addition and measured after 15 mins by LC-MS/MS analysis relative to control; type: ADME; conditions: probe tolbutamide (4-hydroxylation)
[4] = target: T1, Estrogen-related receptor gamma (Homo sapiens); experiment: Inverse agonist activity at ERRgamma in human CAL62 cells assessed as restoration of sodium iodide symporter function by measuring increase in radioiodide avidity at 6 to 12 uM in presence of NIS inhibitor KClO4 after 24 hrs by gamma counting analysis based [125-I]-iodide uptake assay; type: cell-based
CYP3A4 = CYP3A4 (Homo sapiens, UniProt P08684); experiment: Inhibition of CYP3A4 in human liver microsomes assessed as reduction in midazolam 1-hydroxylase activity at 10 uM preincubated for 5 mins followed by NADPH addition and measured after 15 mins by LC-MS/MS analysis relative to control; type: ADME; conditions: probe midazolam (1-hydroxylation)
[5] = Effective permeability of the compound at 10 uM after 5 hrs by PAMPA; type: ADME; conditions: read-out: Peff
[6] = target: T1, Estrogen-related receptor gamma (Homo sapiens); experiment: Inverse agonist activity at ERRgamma in human CAL62 cells assessed as increase in NIS mRNA expression at 6 to 12 uM by RT-PCR analysis; type: cell-based
[7] = target: T1, Estrogen-related receptor gamma (Homo sapiens); experiment: Inverse agonist activity at ERRgamma in human BHT101 cells assessed as increase in TPO mRNA expression at 6 to 12 uM by RT-PCR analysis; type: cell-based
[8] = target: T1, Estrogen-related receptor gamma (Homo sapiens); experiment: Inverse agonist activity at ERRgamma in human BHT101 cells assessed as restoration of sodium iodide symporter function by measuring increase in radioiodide avidity at 6 to 12 uM after 24 hrs by gamma counting analysis based [125-I]-iodide uptake assay; type: cell-based
[9] = Tmax in Sprague-Dawley rat at 9 to 10 mg/kg, po via gavage by LC-MS/MS analysis; type: ADME, organism-based; conditions: in vivo
[10] = Potentiation of radio-iodine avidity in human CAL62 cells xenografted mouse assessed as increase in radio-iodine accumulation in tumor at 200 mg/kg, po dosed once daily for 6 days followed by 50 uCi 124-iodine dosing and measured after 2 hrs by PET/CT imaging analysis; type: ADME, organism-based, Neoplasm; conditions: in vivo
[11] = target: T1, Estrogen-related receptor gamma (Homo sapiens); experiment: Inverse agonist activity at ERRgamma in human BHT101 cells assessed as increase in TSHR mRNA expression at 6 to 12 uM by RT-PCR analysis; type: cell-based
[12] = target: T1, Estrogen-related receptor gamma (Homo sapiens); experiment: Inverse agonist activity at ERRgamma in human CAL62 cells assessed as increase in TPO mRNA expression at 6 to 12 uM by RT-PCR analysis; type: cell-based
[13] = target: T1, Estrogen-related receptor gamma (Homo sapiens); experiment: Inverse agonist activity at ERRgamma in human CAL62 cells assessed as restoration of sodium iodide symporter function by measuring increase in radioiodide avidity at 6 to 12 uM after 24 hrs by gamma counting analysis based [125-I]-iodide uptake assay; type: cell-based
[14] = target: T1, Estrogen-related receptor gamma (Homo sapiens); experiment: Inverse agonist activity at ERRgamma in human BHT101 cells assessed as increase in NIS mRNA expression at 6 to 12 uM by RT-PCR analysis; type: cell-based
[15] = Metabolic stability in dog liver microsomes assessed as compound remaining at 1 uM after 30 mins in presence of NADPH regeneration system by LC-MS/MS analysis; type: ADME, Canis lupus familiaris, Microsome; conditions: read-out: Stability
CYP2C19 = CYP2C19 (Homo sapiens, UniProt P33261); experiment: Inhibition of CYP2C19 in human liver microsomes assessed as reduction in S-mephenytoin 4-hydroxylase activity at 10 uM preincubated for 5 mins followed by NADPH addition and measured after 15 mins by LC-MS/MS analysis relative to control; type: ADME; conditions: probe S-mephenytoin (4-hydroxylation)
CYP1A2 = target: T2, CYP1A2 (Homo sapiens, UniProt P05177); experiment: Inhibition of CYP1A2 in human liver microsomes assessed as reduction in phenacetin O-deethylase activity at 10 uM preincubated for 5 mins followed by NADPH addition and measured after 15 mins by LC-MS/MS analysis relative to control; type: ADME; conditions: probe phenacetin (O-deethylation)
T2 sequence (P05177 whole entry): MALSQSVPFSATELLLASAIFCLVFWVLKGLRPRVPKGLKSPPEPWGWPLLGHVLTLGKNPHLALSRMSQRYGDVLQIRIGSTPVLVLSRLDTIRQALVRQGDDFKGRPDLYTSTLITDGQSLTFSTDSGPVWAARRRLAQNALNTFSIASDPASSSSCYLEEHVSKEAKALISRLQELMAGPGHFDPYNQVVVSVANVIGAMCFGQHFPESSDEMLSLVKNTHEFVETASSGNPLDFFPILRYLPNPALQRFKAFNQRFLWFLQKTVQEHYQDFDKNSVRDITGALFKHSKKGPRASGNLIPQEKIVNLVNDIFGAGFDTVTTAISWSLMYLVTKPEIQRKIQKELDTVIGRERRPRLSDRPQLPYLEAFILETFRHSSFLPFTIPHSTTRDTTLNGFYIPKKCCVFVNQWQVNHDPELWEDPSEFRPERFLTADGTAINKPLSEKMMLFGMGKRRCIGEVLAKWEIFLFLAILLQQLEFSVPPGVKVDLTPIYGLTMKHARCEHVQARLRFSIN

[16] = Metabolic stability in human liver microsomes assessed as compound remaining at 1 uM after 30 mins in presence of NADPH regeneration system by LC-MS/MS analysis; type: ADME, Microsome; conditions: read-out: Stability
[17] = Genotoxicity in Salmonella typhimurium at 2 mM by mini Ames test; type: toxicity; conditions: salmonella enterica subsp. enterica serovar typhimurium, 2000 µM
[18] = target: T1, Estrogen-related receptor gamma (Homo sapiens); experiment: Inverse agonist activity at ERRgamma in human CAL62 cells assessed as increase in TSHR mRNA expression at 6 to 12 uM by RT-PCR analysis; type: cell-based
BHT-101 = experiment: Reduction in colony formation in human BHT101 cells at 6 uM after 24 hrs by crystal violet-based assay; type: ADME, cell-based; conditions: bht-101, 24 h
[19] = target: T1, Estrogen-related receptor gamma (Homo sapiens); experiment: Inverse agonist activity at ERRgamma in human BHT101 cells assessed as increase in TG mRNA expression at 6 to 12 uM by RT-PCR analysis; type: cell-based
[20] = target: T1, Estrogen-related receptor gamma (Homo sapiens); experiment: Inverse agonist activity at ERRgamma in human BHT101 cells assessed as restoration of sodium iodide symporter function by measuring increase in radioiodide avidity at 6 to 12 uM in presence of NIS inhibitor KClO4 after 24 hrs by gamma counting analysis based [125-I]-iodide uptake assay; type: cell-based
CYP2D6 = CYP2D6 (Homo sapiens, UniProt P10635); experiment: Inhibition of CYP2D6 in human liver microsomes assessed as reduction in dextromethorphan O-demethylase activity at 10 uM preincubated for 5 mins followed by NADPH addition and measured after 15 mins by LC-MS/MS analysis relative to control; type: ADME; conditions: probe dextromethorphan (O-demethylation)
[21] = AUC (0 to infinity) in Sprague-Dawley rat at 9 to 10 mg/kg, po via gavage by LC-MS/MS analysis; type: ADME, organism-based; conditions: in vivo
[22] = AUC (0 to infinity) in Sprague-Dawley rat at 1 mg/kg, iv by LC-MS/MS analysis; type: ADME, organism-based; design: dose 1 mg/kg, time infinity, route intravenous; conditions: in vivo

Sequence of CYP3A4 (P08684 whole entry): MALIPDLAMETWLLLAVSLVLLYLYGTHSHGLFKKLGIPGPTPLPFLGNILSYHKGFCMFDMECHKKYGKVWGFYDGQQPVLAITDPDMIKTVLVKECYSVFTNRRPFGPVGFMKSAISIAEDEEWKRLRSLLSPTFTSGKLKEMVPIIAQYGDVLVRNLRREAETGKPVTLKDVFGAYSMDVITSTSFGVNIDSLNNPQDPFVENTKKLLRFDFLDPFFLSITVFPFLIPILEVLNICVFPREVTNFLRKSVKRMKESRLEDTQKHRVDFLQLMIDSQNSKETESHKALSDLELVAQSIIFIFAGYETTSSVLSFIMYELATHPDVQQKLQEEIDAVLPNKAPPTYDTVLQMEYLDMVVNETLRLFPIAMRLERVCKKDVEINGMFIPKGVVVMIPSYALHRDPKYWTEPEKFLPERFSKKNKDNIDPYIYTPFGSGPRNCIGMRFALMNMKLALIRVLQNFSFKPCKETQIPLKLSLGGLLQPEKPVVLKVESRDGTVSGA
Sequence of CYP2D6 (P10635 whole entry): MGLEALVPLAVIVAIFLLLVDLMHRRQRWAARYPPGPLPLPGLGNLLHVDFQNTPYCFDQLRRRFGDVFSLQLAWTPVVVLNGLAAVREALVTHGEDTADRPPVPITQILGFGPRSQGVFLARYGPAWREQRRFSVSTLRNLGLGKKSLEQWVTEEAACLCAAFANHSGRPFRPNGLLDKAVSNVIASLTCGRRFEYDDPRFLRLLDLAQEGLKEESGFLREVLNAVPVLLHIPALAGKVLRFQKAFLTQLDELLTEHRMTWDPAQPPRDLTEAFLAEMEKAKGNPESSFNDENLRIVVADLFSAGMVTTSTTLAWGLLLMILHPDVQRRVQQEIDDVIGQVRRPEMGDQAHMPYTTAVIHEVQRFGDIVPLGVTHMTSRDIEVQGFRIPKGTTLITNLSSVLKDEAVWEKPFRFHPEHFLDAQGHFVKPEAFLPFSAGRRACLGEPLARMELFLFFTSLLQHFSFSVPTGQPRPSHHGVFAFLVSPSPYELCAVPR
Sequence of CYP2C9 (P11712 whole entry): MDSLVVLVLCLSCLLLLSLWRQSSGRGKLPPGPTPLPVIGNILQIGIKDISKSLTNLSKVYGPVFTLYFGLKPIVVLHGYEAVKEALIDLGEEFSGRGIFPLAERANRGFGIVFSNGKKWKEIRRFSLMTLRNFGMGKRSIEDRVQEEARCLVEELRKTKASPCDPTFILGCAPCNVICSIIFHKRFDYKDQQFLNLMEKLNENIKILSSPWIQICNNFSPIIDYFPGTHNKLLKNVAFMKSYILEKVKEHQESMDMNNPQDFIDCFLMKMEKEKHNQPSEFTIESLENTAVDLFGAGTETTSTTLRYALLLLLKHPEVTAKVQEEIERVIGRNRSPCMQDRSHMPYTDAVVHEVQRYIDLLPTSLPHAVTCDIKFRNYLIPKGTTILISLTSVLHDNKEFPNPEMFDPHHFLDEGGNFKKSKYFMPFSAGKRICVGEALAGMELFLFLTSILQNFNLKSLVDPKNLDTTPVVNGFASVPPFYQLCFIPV
Sequence of CYP2C19 (P33261 whole entry): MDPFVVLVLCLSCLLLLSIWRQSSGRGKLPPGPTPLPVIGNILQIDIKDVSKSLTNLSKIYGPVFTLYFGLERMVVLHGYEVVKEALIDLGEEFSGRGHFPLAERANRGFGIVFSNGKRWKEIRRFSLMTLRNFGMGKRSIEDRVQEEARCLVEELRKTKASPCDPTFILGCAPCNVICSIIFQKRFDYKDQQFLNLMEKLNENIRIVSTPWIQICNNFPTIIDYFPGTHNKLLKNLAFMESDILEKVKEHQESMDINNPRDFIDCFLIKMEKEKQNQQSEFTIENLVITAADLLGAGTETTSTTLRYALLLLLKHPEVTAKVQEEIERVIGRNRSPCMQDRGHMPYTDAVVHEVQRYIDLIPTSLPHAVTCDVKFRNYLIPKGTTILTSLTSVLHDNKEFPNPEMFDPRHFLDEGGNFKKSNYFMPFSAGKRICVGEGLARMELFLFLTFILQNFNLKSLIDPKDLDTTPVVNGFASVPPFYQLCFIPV

CC(C)N1CCN(c2ccc(/C(=C(/CCCO)c3ccccc3)c3cccc(O)c3)cc2)CC1.Cl.Cl
Activity [1]: Dose-dependent effect | AUC (in vivo): 0.99 µM·h | remaining at 0.5 h, 1 µM [2]: 26.9% | Activity (CAL-62): Non-Toxic | remaining at 0.5 h, 1 µM [3]: 54.9% | inhibition at 0.25 h, 10 µM (CYP2C9): 24.1% | Activity [4]: inactive | inhibition at 0.25 h, 10 µM (CYP3A4): 53.3% | Papp at 5 h, 10 µM [5]: 1.29 ×10⁻⁶ cm/s | Activity [6]: Dose-dependent effect | Activity [7]: Active | Activity [8]: Active | Tmax [9]: 1.7 h | Activity [10]: Active | Activity [11]: Active | Activity [12]: Dose-dependent effect | Activity [13]: Active | Activity [14]: Active | remaining at 0.5 h, 1 µM [15]: 61.2% | inhibition at 0.25 h, 10 µM (CYP2C19): 0% | inhibition at 0.25 h, 10 µM (CYP1A2): 0% | remaining at 0.5 h, 1 µM [16]: 65.4% | Activity [17]: Non-Toxic | Activity [18]: Dose-dependent effect | Activity (BHT-101): Non-Toxic | Activity [19]: Active | Activity [20]: inactive | inhibition at 0.25 h, 10 µM (CYP2D6): 34% | AUC(0-inf) [21]: 4.71 µM·h | AUC(0-inf) [22]: 1 µM·h
